Reference: ChEMBL document CHEMBL1149774, “Synthesis of N-(5,7-diamino-3-phenyl-quinoxalin-2-yl)-3,4,5-substituted anilines and N-[4[(5,7-diamino-3-phenylquinoxalin-2-yl)amino]benzoyl]-l-glutamic acid diethyl ester: evaluation of in vitro anti-cancer and anti-folate activities” (Eur J Med Chem, 2008)
Calls of active or inactive are those of the source. The rule behind the calls is not given here.

What was measured:
MDA-MB-435 = assay: Growth inhibition of human MDA-MB-435 cells after 48 hrs by SRB staining method; type: functional; conditions: MDA-MB-435, 48 h; for CC50: read-out: pLC50 (the source's name) (converted); for TGI: read-out: pTGI (converted)
[1] = Growth inhibition of human HS 578T cells after 48 hrs by SRB staining method; type: functional; conditions: for CC50: read-out: pLC50 (the source's name) (converted); for TGI: read-out: pTGI (converted)
M14 = assay: Growth inhibition of human M14 cells after 48 hrs by SRB staining method; type: functional; conditions: M14, 48 h; for TGI: read-out: pTGI (converted)
SF-539 = assay: Growth inhibition of human SF539 cells after 48 hrs by SRB staining method; type: functional; conditions: SF-539, 48 h; for TGI: read-out: pTGI (converted)
NCI-H322M = assay: Growth inhibition of human NCI-H322M cells after 48 hrs by SRB staining method; type: functional
HT-29 = assay: Growth inhibition of human HT29 cells after 48 hrs by SRB staining method; type: functional; conditions: HT-29, 48 h
A549 = assay: Growth inhibition of human A549 cells after 48 hrs by SRB staining method; type: functional; conditions: A549, 48 h; for CC50: read-out: pLC50 (the source's name) (converted); for TGI: read-out: pTGI (converted)
SK-MEL-28 = assay: Growth inhibition of human SK-MEL-28 cells after 48 hrs by SRB staining method; type: functional; conditions: SK-MEL-28, 48 h; for CC50: read-out: pLC50 (the source's name) (converted); for TGI: read-out: pTGI (converted)
TK-10 = assay: Growth inhibition of human TK10 cells after 48 hrs by SRB staining method; type: functional; conditions: TK-10, 48 h; for CC50: read-out: pLC50 (the source's name) (converted); for TGI: read-out: pTGI (converted)
HOP-92 = assay: Growth inhibition of human HOP92 cells after 48 hrs by SRB staining method; type: functional; conditions: HOP-92, 48 h; for TGI: read-out: pTGI (converted)
Dihydrofolate reductase = target: T1, Dihydrofolate reductase (Homo sapiens, UniProt P00374); assay: Inhibition of human dihydrofolate reductase
T1 sequence (P00374 whole entry): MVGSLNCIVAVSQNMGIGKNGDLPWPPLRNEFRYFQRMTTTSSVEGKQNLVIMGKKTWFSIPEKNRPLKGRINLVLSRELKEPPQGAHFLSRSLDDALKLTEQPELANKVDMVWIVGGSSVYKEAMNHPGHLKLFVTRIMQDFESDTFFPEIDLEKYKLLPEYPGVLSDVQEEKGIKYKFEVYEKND

SK-MEL-5 = assay: Growth inhibition of human SK-MEL-5 cells after 48 hrs by SRB staining method; type: functional; conditions: SK-MEL-5, 48 h; for TGI: read-out: pTGI (converted)
Thymidylate synthase [2] = target: Thymidylate synthase (Homo sapiens, UniProt P04818)
Description: Inhibition of human thymidylate synthase

EKVX = assay: Growth inhibition of human EKVX cells after 48 hrs by SRB staining method; type: functional; conditions: for CC50: read-out: pLC50 (the source's name) (converted); for TGI: read-out: pTGI (converted)
SW-620 = assay: Growth inhibition of human SW620 cells after 48 hrs by SRB staining method; type: functional; conditions: SW-620, 48 h; for CC50: read-out: pLC50 (the source's name) (converted); for TGI: read-out: pTGI (converted)
HCT-116 = assay: Growth inhibition of human HCT116 cells after 48 hrs by SRB staining method; type: functional; conditions: HCT-116, 48 h; for TGI: read-out: pTGI (converted)
NCI-H522 = assay: Growth inhibition of human NCI-H522 cells after 48 hrs by SRB staining method; type: functional; conditions: NCI-H522, 48 h; for TGI: read-out: pTGI (converted)
OVCAR-4 = assay: Growth inhibition of human OVCAR4 cells after 48 hrs by SRB staining method; type: functional; conditions: OVCAR-4, 48 h; for TGI: read-out: pTGI (converted)
LOX IMVI = assay: Growth inhibition of human LOX IMVI cells after 48 hrs by SRB staining method; type: functional; conditions: for TGI: read-out: pTGI (converted)
RPMI-8226 = assay: Growth inhibition of human RPMI8226 cells after 48 hrs by SRB staining method; type: functional; conditions: RPMI-8226, 48 h; for CC50: read-out: pLC50 (the source's name) (converted); for TGI: read-out: pTGI (converted)
HOP-62 = assay: Growth inhibition of human HOP62 cells after 48 hrs by SRB staining method; type: functional; conditions: HOP-62, 48 h; for TGI: read-out: pTGI (converted)
KM12 = assay: Growth inhibition of human KM12 cells after 48 hrs by SRB staining method; type: functional; conditions: KM12, 48 h; for TGI: read-out: pTGI (converted)
MDA-N = assay: Growth inhibition of human MDA-N cells after 48 hrs by SRB staining method; type: functional
CCRF-CEM = assay: Growth inhibition of human CCRF-CEM cells after 48 hrs by SRB staining method; type: functional; conditions: for CC50: read-out: pLC50 (the source's name) (converted); for TGI: read-out: pTGI (converted)
OVCAR-3 = assay: Growth inhibition of human OVCAR-3 cells after 48 hrs by SRB staining method; type: functional; conditions: OVCAR-3, 48 h; for TGI: read-out: pTGI (converted)
SN12C = assay: Growth inhibition of human SN12C cells after 48 hrs by SRB staining method; type: functional
[3] = target: T2, Dihydrofolate reductase (Homo sapiens) (UniProt P00374); assay: Inhibition of human dihydrofolate reductase at 10 uM
T2 sequence (whole entry): T1 sequence (P00374 whole entry)

Thymidylate synthase [4] = target: T3, Thymidylate synthase (Lactobacillus casei, UniProt P00469)
T3 sequence (P00469 whole entry): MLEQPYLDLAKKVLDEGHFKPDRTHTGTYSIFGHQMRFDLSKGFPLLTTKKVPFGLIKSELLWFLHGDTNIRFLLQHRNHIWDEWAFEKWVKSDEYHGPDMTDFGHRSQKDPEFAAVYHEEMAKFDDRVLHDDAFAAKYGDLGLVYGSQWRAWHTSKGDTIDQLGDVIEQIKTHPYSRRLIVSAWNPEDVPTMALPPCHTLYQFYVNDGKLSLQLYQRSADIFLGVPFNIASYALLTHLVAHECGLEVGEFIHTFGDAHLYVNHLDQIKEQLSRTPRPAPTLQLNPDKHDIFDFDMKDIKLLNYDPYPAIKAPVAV
Description: Inhibition of Lactobacillus casei thymidylate synthase

[5] = read-out: pLC50 (the source's name) (converted)

Chain of Thymidylate synthase (Homo sapiens, UniProt P04818) (P04818 whole entry): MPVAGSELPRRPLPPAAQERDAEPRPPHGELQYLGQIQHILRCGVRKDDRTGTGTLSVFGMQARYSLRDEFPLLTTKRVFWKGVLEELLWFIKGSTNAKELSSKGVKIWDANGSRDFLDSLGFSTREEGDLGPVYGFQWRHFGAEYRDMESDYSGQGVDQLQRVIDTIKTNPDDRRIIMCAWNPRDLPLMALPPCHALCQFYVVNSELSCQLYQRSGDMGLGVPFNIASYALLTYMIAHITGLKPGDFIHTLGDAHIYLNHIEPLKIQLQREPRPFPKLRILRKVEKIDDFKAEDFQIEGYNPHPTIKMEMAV

COc1cc(Nc2nc3cc(N)cc(N)c3nc2-c2ccccc2)cc(OC)c1OC
GI50 (MDA-MB-435): 7.41 µM
CC50 (MDA-MB-435): 69.2 µM
TGI (MDA-MB-435): 24.5 µM
GI50 [1]: 15.1 µM
CC50 [1]: > 100 µM
TGI [1]: 77.6 µM
GI50 (M14): 19.5 µM
LC50 (M14): > 100 µM
TGI (M14): 44.7 µM
GI50 (SF-539): 14.8 µM
LC50 (SF-539): 56.2 µM
TGI (SF-539): 28.8 µM
LC50 (NCI-H322M): > 100 µM
GI50 (HT-29): 33.1 µM
LC50 (HT-29): 74.1 µM
TGI (HT-29; read-out: pTGI (converted)): 34.7 µM
GI50 (A549): 29.5 µM
CC50 (A549): > 100 µM
TGI (A549): > 100 µM
GI50 (SK-MEL-28): 1.45 µM
CC50 (SK-MEL-28): 63.1 µM
TGI (SK-MEL-28): 20.9 µM
GI50 (TK-10): 24 µM
CC50 (TK-10): > 100 µM
TGI (TK-10): 66.1 µM
GI50 (HOP-92): 2.75 µM
LC50 (HOP-92): 91.2 µM
TGI (HOP-92): 20.9 µM
Ki (Dihydrofolate reductase): 0.1 µM
GI50 (SK-MEL-5): 12.9 µM
LC50 (SK-MEL-5): 58.9 µM
TGI (SK-MEL-5): 27.5 µM
Ki (Thymidylate synthase [2]): 51 µM
GI50 (EKVX): 17.8 µM
CC50 (EKVX): > 100 µM
TGI (EKVX): 47.9 µM
GI50 (SW-620): 24 µM
CC50 (SW-620): > 100 µM
TGI (SW-620): > 100 µM
GI50 (HCT-116): 15.5 µM
LC50 (HCT-116): 75.9 µM
TGI (HCT-116): 33.9 µM
GI50 (NCI-H522): 18.2 µM
LC50 (NCI-H522): > 100 µM
TGI (NCI-H522): 53.7 µM
GI50 (OVCAR-4): 0.0316 µM
LC50 (OVCAR-4): 25.7 µM
TGI (OVCAR-4): 0.891 µM
GI50 (LOX IMVI): 18.6 µM
LC50 (LOX IMVI): > 100 µM
TGI (LOX IMVI): 49 µM
GI50 (RPMI-8226): 12.3 µM
CC50 (RPMI-8226): 85.1 µM
TGI (RPMI-8226): 32.4 µM
GI50 (HOP-62): 16.2 µM
LC50 (HOP-62): 72.4 µM
TGI (HOP-62): 34.7 µM
GI50 (KM12): 10.7 µM
LC50 (KM12): 81.3 µM
TGI (KM12): 29.5 µM
GI50 (MDA-N): 10.5 µM
CC50 (MDA-N; [5]): 93.3 µM
TGI (MDA-N; read-out: pTGI (converted)): 31.6 µM
GI50 (CCRF-CEM): 4.37 µM
CC50 (CCRF-CEM): > 100 µM
TGI (CCRF-CEM): 41.7 µM
GI50 (OVCAR-3): 14.1 µM
LC50 (OVCAR-3): 97.7 µM
TGI (OVCAR-3): 37.2 µM
GI50 (SN12C): 20.4 µM
CC50 (SN12C; [5]): > 100 µM
TGI (SN12C; read-out: pTGI (converted)): 83.2 µM

CCOC(=O)CCC(NC(=O)c1ccc(Nc2nc3cc(N)cc(N)c3nc2-c2ccccc2)cc1)C(=O)OCC (stereo not drawn)
GI50 (MDA-MB-435): 12 µM
CC50 (MDA-MB-435): > 100 µM
TGI (MDA-MB-435): 36.3 µM
GI50 [1]: 33.9 µM
CC50 [1]: > 100 µM
TGI [1]: 75.9 µM
GI50 (M14): 2.51 µM
LC50 (M14): 75.9 µM
TGI (M14): 5.89 µM
GI50 (SF-539): 27.5 µM
LC50 (SF-539): > 100 µM
TGI (SF-539): > 100 µM
Activity [3]: inactive
GI50 (NCI-H322M): 41.7 µM
LC50 (NCI-H322M): > 100 µM
TGI (NCI-H322M; read-out: pTGI (converted)): > 100 µM
GI50 (A549): 20 µM
CC50 (A549): > 100 µM
TGI (A549): > 100 µM
GI50 (SK-MEL-28): 1.51 µM
CC50 (SK-MEL-28): 5.89 µM
TGI (SK-MEL-28): 3.02 µM
GI50 (TK-10): 33.1 µM
CC50 (TK-10): > 100 µM
TGI (TK-10): 75.9 µM
GI50 (HOP-92): 10.7 µM
LC50 (HOP-92): 81.3 µM
TGI (HOP-92): 29.5 µM
Ki (Thymidylate synthase [4]): 27 µM
GI50 (SK-MEL-5): 6.61 µM
LC50 (SK-MEL-5): > 100 µM
TGI (SK-MEL-5): 31.6 µM
Ki (Thymidylate synthase [2]): 34 µM
GI50 (EKVX): 28.8 µM
CC50 (EKVX): > 100 µM
TGI (EKVX): > 100 µM
GI50 (SW-620): 40.7 µM
CC50 (SW-620): > 100 µM
TGI (SW-620): > 100 µM
GI50 (HCT-116): 15.1 µM
LC50 (HCT-116): > 100 µM
TGI (HCT-116): 51.3 µM
GI50 (NCI-H522): 27.5 µM
LC50 (NCI-H522): > 100 µM
TGI (NCI-H522): > 100 µM
GI50 (OVCAR-4): 26.9 µM
LC50 (OVCAR-4): > 100 µM
TGI (OVCAR-4): > 100 µM
GI50 (LOX IMVI): 8.51 µM
LC50 (LOX IMVI): > 100 µM
TGI (LOX IMVI): > 100 µM
GI50 (RPMI-8226): 3.16 µM
CC50 (RPMI-8226): > 100 µM
TGI (RPMI-8226): > 100 µM
GI50 (HOP-62): 19.5 µM
LC50 (HOP-62): 81.3 µM
TGI (HOP-62): 39.8 µM
GI50 (KM12): 28.2 µM
LC50 (KM12): > 100 µM
TGI (KM12): > 100 µM
GI50 (CCRF-CEM): 2.95 µM
CC50 (CCRF-CEM): > 100 µM
TGI (CCRF-CEM): > 100 µM
GI50 (OVCAR-3): 8.51 µM
LC50 (OVCAR-3): > 100 µM
TGI (OVCAR-3): 31.6 µM
